ChEMBL document CHEMBL1151998, “Combretatroponeshybrids of combretastatin and colchicine. Synthesis and biochemical evaluation” (Bioorg Med Chem Lett, 1993)

Target: Tubulin beta chain (Bos taurus, UniProt Q6B856)
Test: Compound was evaluated for in vitro inhibitory activity against polymerization of tubulin into microtubules isolated from bovine brain at 1 mg/mL tubulin concentration
Format: tissue-based

Tubulin beta chain, sequence (Q6B856 whole entry): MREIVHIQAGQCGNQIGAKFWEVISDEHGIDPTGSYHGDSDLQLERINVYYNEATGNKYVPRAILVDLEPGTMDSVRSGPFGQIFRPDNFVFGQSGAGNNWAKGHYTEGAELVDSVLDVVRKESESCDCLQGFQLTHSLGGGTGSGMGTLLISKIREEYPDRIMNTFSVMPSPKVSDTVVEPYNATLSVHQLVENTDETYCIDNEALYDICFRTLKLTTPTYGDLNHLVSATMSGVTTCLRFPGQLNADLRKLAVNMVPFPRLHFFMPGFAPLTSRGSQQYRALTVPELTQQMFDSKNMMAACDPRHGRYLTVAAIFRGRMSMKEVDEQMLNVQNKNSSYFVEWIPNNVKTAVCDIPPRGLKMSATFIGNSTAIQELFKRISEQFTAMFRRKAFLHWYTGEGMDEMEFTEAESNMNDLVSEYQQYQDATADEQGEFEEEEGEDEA

SMILES	IC50 [µM]
COc1cc(CCc2cccc(SC)c(=O)c2)cc(OC)c1OC	12
COc1cc(CCc2cccc(OC)c(=O)c2)cc(OC)c1OC	8.6
COc1ccc(-c2ccc(OC)c(=O)cc2)c(OC)c1OC	2.5
